We go through 16 compounds from PubChem BioAssay (NCI).

Common to all, as to assay: NCI tumour cell line growth inhibition, 48 h
Assay [1] relates to RPMI-8226 leukemia.
Assay [2] deals with SF-295 CNS.
Assay [3] relates to SK-MEL-28 melanoma.
The test system of assay [4] is PC-3 prostate.
For assay [5], the system named is NCI-H226 lung.
For assay [6], the system named is SNB-19 CNS.
Assay [7] has as its system M14 melanoma.
The subject of assay [8] is SR leukemia.
In assay [9] the test system is SN12C renal.
For assay [10], the system named is RXF 393 renal.

Values joined by “and” are separate entries in the source; they are usually repeats but may differ in a detail not shown here. Equal entries are not always repeated.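 Briefly, cells in 96-well plates were exposed to five compound concentrations for 48 h, and endpoints were estimated by linear interpolation. GI50 is the concentration that inhibits growth by half. TGI denotes the concentration required for complete inhibition of growth.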 A value given as a limit tells only on which side of the number the result lay.

`CC(=O)N[C@@H](Cc1ccc(O)cn1)C(=O)NC1CCCCC1`: the TGI in [1], in assay [2], in [3], in assay [4], in [5] and in assay [6] was over 100 µM in each case. In addition, the TGI in assay [7], in assay [8] and in assay [9] was over 100 µM throughout.

On to `Cc1ccc(-n2cc(-c3ccc(Cl)cc3)c3c(=N)n(N)cnc32)cc1`, for which the TGI is 28.8 µM in assay [2]; 26.7 µM in assay [3]; 19.4 µM in assay [4]; 38.2 µM in [5]; 15.7 µM in [10]; 24.4 µM in assay [6]. Further, the figures for the TGI in assay [7] and in assay [9] were 17.2 µM and 29.9 µM, respectively.

`CCCCCCCc1ccc(-c2nnc(N=Nc3ccc(OCCCCC)cc3)s2)s1`: the TGI in assay [1], in assay [2], in assay [3], in assay [4], in assay [5] and in assay [10] was over 100 µM each time. In addition, the TGI in assay [6], in assay [7] and in assay [9] was over 100 µM each time.

Take `NC(N)=NCCCC(NC(=O)c1c2ccccc2nc2ccccc12)C(=O)O` (configuration not stated): the TGI in assay [1], in [2], in assay [3], in assay [4], in assay [5] and in assay [6] was over 100 µM in each case. Also, the TGI in assay [7], in assay [8] and in assay [9] was over 100 µM throughout.

As for `N#Cc1c(N)nc(Sc2ccccc2N)c(C#N)c1-c1ccccc1`, the TGI in assay [1] was over 100 µM; in [3] it was over 100 µM; in assay [4], 33.3 µM; in [5] it was over 100 µM; in assay [6], over 100 µM; in assay [7] it was over 100 µM. The compound further displayed a TGI in assay [8] of over 100 µM.

With `CCC(=C/[C@H](C)C/C=C/C(C)=C/[C@@H](C)C(=O)[C@@H](C)[C@H](O)[C@@H](C)CC)/C=C/[C@H]1CC=CC(=O)O1`, the GI50 in [1] and in [5] was under 0.0012 µM in each case. The TGI is 1.48 µM and 13.8 µM in assay [2]; 2.81 µM and 15.1 µM in assay [3]; 1.45 µM and 11.5 µM in assay [4]; under 0.0012 µM in assay [10]; 2.11 µM and 14 µM in [6]; 0.159 µM in assay [7].

On to `Cc1cc2occ(S(=O)(=O)NC(=O)Nc3ccc(Cl)cc3)c(=O)c2c(=O)o1`, for which the TGI in assay [1], in [2], in assay [3], in assay [4], in assay [5] and in assay [10] was over 100 µM each time. Also, the TGI in [6], in assay [7] and in assay [9] was over 100 µM throughout.

As to `Cc1nc(Cc2n[nH]c(C)n2)n[nH]1`, the TGI in assay [1], in [2], in assay [4], in assay [10], in assay [6] and in assay [7] was over 100 µM each time. In addition, the TGI in [8] and in [9] was over 100 µM in each case.

Consider `O=C(O)CCC1NC(/C(=C/c2ccccc2O)NC(=O)c2ccccc2)OC1=O` (configuration not stated), for which the TGI in assay [1], in assay [2], in assay [3], in assay [4], in [5] and in [10] was over 100 µM each time. In addition, the TGI in assay [6], in assay [7] and in assay [9] was over 100 µM throughout.

As for `COc1cccc(CCCNC(=O)Cc2ccccc2CO)c1`, the TGI in [2], in assay [3], in assay [4], in [5], in assay [6] and in assay [7] was over 100 µM in each case. Further, the TGI in assay [8] and in [9] was over 100 µM each time.

On to `CCCCCCCCCCCCC1N=C(N)N2CCCC2=C1C(=O)OC` (configuration not stated), for which the TGI was 3.39 µM in [2]; 3.1 µM in assay [3]; 3.95 µM in [4]; 48.8 µM in assay [5]; 69.4 µM in assay [10]; 3.41 µM in assay [6]. In addition, the TGI in [7] was 3.16 µM; in [8], over 100 µM.

For `COc1ccc(/C=N/Nc2nnc3c(n2)c2ccccc2c2nn(-c4ccccc4Cl)nc23)cc1`, the TGI in assay [1], in [2], in assay [3], in assay [4], in assay [5] and in assay [10] was over 100 µM in each case. The TGI in assay [6], in assay [7] and in assay [9] was over 100 µM throughout.

In the case of `C[n+]1c(-c2ccc(/C=N/NC(=O)C(=O)N/N=C/c3ccc(-c4cn5ccccc5[n+]4C)cc3)cc2)cn2ccccc21`, the TGI in assay [1], in assay [4], in assay [5], in [10], in assay [6] and in assay [7] was over 100 µM throughout. In addition, the TGI in [9] was over 100 µM.

`C[n+]1c2ccccc2c(C(=O)Nc2ccc(S(=O)(=O)Nc3ncccn3)cc2)c2ccccc21`: the TGI in [1], in [2], in [3], in assay [4], in assay [5] and in assay [6] was over 100 µM throughout. In addition, the TGI in [7], in assay [8] and in assay [9] was over 100 µM in each case.

For the compound `Clc1ccc(C2=NCON=C2c2ccc(Cl)cc2)cc1`, the TGI in assay [1] is 40.6 µM; in [2], 49.4 µM; in [4], 68.2 µM; in assay [5], 32.7 µM; in assay [10], 44.8 µM; in assay [6] it was over 100 µM. The TGI in [9] was determined as 35.2 µM.

As for `CCOC(=O)C1C(c2ccc(OC)cc2)c2c([nH]n(-c3ccccc3)c2=O)CC1(C)O` (configuration not stated), the TGI in [1], in [2], in [3], in assay [4], in assay [6] and in assay [7] was over 100 µM throughout. The TGI in assay [8] and in assay [9] was over 100 µM each time.
